From patent publication US10160747B2, “Compounds and methods for kinase modulation, and indications therefor” (Plexxikon Inc., priority 2016, dated 2018)
Positions count from the first letter of the chain named.

Tests used:
BaF3-FLT3-ITD-D835V = biological target: T1, BaF3-FLT3-ITD-D835V (Homo sapiens, UniProt P36888, D835V, cells depend on it, form not given); assay: Cell Assay CS0048: BaF3-FLT3-ITD-D835V CTB; type: cell-based, murine; settings: three day growth assay in the absence of IL3; read-out: Cell Assay: CS0048: BaF3-FLT3-ITD-D835V CTB:IC50
T1 sequence (P36888 with tags, fused parts or gaps INS600HVDFREYEYD/D835V): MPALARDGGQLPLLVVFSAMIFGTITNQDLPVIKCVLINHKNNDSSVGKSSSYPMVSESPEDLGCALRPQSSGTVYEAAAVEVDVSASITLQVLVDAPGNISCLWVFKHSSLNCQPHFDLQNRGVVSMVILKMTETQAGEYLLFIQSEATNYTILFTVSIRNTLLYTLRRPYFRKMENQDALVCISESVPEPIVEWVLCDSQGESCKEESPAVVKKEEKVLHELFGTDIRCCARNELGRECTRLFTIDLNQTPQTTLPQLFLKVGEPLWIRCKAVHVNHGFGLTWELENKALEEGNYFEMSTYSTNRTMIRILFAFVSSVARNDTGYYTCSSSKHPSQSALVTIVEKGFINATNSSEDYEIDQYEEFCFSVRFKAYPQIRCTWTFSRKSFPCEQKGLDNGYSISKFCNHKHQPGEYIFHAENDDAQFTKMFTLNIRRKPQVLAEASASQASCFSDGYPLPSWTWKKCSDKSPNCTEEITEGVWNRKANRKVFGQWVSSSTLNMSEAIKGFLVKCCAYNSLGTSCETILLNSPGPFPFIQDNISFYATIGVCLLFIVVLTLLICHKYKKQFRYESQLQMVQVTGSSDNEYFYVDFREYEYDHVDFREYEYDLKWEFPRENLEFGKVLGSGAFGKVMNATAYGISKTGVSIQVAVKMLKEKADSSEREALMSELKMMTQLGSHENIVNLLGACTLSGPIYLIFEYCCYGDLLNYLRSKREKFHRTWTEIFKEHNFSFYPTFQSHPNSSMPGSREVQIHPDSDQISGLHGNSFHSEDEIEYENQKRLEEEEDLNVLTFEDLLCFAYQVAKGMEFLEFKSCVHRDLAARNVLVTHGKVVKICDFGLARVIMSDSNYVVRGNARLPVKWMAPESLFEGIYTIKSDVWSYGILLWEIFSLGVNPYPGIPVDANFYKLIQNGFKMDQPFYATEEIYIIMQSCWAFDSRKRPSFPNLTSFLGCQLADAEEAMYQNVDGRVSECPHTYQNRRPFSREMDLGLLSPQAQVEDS
Source text: (§1) The BaF3 assays as developed used to generate the data in Tables 7 and 8 are identical and differ only in minor details in regards to vector design, not biological function. Both introduce the FLT3 gene with MV4-11 based ITD duplications and resistance mutations from an exogenous promoter (MSCV and CMV respectively) in the exact same cell line.
(§2) As a result of the expressed FLT3 protein, the IL3 factor dependent BaF3 cell clones become IL3-factor independent.
(§3) The compounds in Tables 7 and 8 were tested in an identical fashion by incubating such clones in with increasing concentrations. Inhibition of the FLT3 activity by an inhibitor results in factor dependency, which in the absence of IL3 results in cell death in the three day growth assays.

BaF3-FLT3-ITD-F691L = biological target: T2, BaF3-FLT3-ITD-F691L (Homo sapiens, UniProt P36888, F691L, cells depend on it, form not given); assay: Cell Assay CS0047: BaF3-FLT3-ITD-F691L CTB; type: cell-based, murine; settings: three day growth assay in the absence of IL3; read-out: Cell Assay: CS0047: BaF3-FLT3-ITD-F691L CTB:IC50
T2 sequence (P36888 with tags, fused parts or gaps INS600HVDFREYEYD/F691L): T1 sequence (P36888 with tags, fused parts or gaps INS600HVDFREYEYD/D835V) with F701L, V845D
Source text: as §1, §2, §3

[1] = system: leukemia cell that express either wild type FLT3 or FLT3-ITD mutations; settings: cells expressing wild type FLT3 or FLT3-ITD mutations; cited from earlier work
BaF3_FLT3_ITD/F691L = biological target: T3, BaF3_FLT3_ITD/F691L (Homo sapiens, UniProt P36888, F691L, cells depend on it, form not given); assay: Engineered BaF3 cell growth assay, FLT3 ITD/F691L; type: cell-based, murine; settings: three day growth assay in the absence of IL3
T3 sequence (P36888 with tags, fused parts or gaps INS600HVDFREYEYD/F691L): T1 sequence (P36888 with tags, fused parts or gaps INS600HVDFREYEYD/D835V) with F701L, V845D
Source text: The FLT3 inhibitors may be assessed using the MOLM-14, Acute Myeloid Leukemia cell line that endogenously expresses FLT3 ITD or derivatives of the human FLT3 AML cell line which acquired the D835Y (activation loop) of F691L (gatekeeper) mutation after selection in escalating doses of the FLT3 Inhibitor AC220. FLT3 inhibitors may also be assessed using cells that are engineered to express mutant FLT3. For engineered cells, murine Ba/F3 cells were transfected with full-length FLT3 ITD/D835Y mutations. The parental BA/F3 cells are dependent upon Interleukin-3 (IL-3) for survival, and introduction of the FLT3 constructs rendered these cells dependent upon FLT3 kinase activity when cultured in the absences of IL-3. Engineered BA/F3 cell growth assays can be performed in either the […] of IL-3, to assess the compound inhibition of FLT3 or to detect the presence of off-target activity, respectively. Inhibitors of FLT3 kinase activity reduce or eliminate the FLT3 oncogenic signaling, resulting in reduced cell proliferation. This inhibition is measured as a function of compound concentration to assess IC50 values.
Cells were seeded at 1×10^4 cells per well of a 96 well cell culture plate in 50 μl of cell culture medium. Compounds were dissolved in DMSO, typically at a concentration of 0.5 mM and were serially diluted 1:3 for a total of eight points and added to the cells to final concentrations of […], 0.0041, 0.0014 and 0.00046 μM in 100 μl cell culture medium (final concentration 0.2% DMSO). […] The cells were incubated at 37° C., 5% CO2 for three days. CellTiter-Glo Buffer (Promega Cell Viability Assay catalog #G7573) and substrate were equilibrated to room temperature, and enzyme/substrate Recombinant Firefly Luciferase/Beetle Luciferin was reconstituted. […] The plates were read on a Tecan M1000 using Luminescence protocol modified to read 0.1 s per well. The luminescence reading assesses the ATP content, which correlates directly with cell number such that the reading as a function of compound concentration was used to determine the IC50 value. […]

BA/F3-FLT3-ITD + D835Y = biological target: T4, BA/F3-FLT3-ITD + D835Y (Homo sapiens, UniProt P36888, D835Y, cells depend on it, form not given); assay: Engineered BA/F3 cell growth assay, FLT3 ITD/D835Y; type: cell-based, murine; settings: three day growth assay in the absence of IL3; read-out: BaF3_FLT3_ITD/D835Y
T4 sequence (P36888 with tags, fused parts or gaps INS600HVDFREYEYD/D835Y): T1 sequence (P36888 with tags, fused parts or gaps INS600HVDFREYEYD/D835V) with V845Y
How it was run: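 IC50 derived from CellTiter-Glo ATP luminescence after 3 days at 37 °C, 5% CO2, over eight 1:3 dilutions from 1 μM (0.2% DMSO final). Cells: IL-3-independent murine Ba/F3 expressing full-length FLT3 ITD/D835Y, 1×10^4 per well.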

[2] = system: quizartinib resistance-causing mutants; settings: FLT3-ITD KD mutants, in addition to other mutant isoforms; cited from earlier work

Row | GI50 (BaF3-FLT3-ITD-D835V) [nM] | GI50 (BaF3-FLT3-ITD-F691L) [nM] | GI50 (BaF3_FLT3_ITD/F691L) [nM] | GI50 (BA/F3-FLT3-ITD + D835Y) [nM] | Structure (SMILES) | other results
1 | 145 | 73.9 | – | – | CC(C)(c1cc(NC(=O)Cc2ccc(-c3ccc(NCCN4CCOCC4)nc3)cc2)no1)C(F)(F)F | –
2 | 94.2 | 45.4 | – | – | CCNc1ccc(-c2ccc(CC(=O)Nc3cc(C(C)(C)C)on3)cc2)cn1 | –
3 | 673 | 110 | – | – | CC(C)(C)c1cc(NC(=O)Nc2ccc(-c3cnc(NC4CCOCC4)nc3)cn2)no1 | –
4 | 585 | 77.8 | – | – | CC(C)(C)c1cc(NC(=O)Nc2ccc(-c3cnc(NC4CC4)nc3)cn2)no1 | –
5 | – | – | – | – | C=CCNC1=C2C[C@@H](C)C[C@H](OC)[C@H](O)[C@@H](C)/C=C(\C)[C@H](OC(N)=O)[C@@H](OC)/C=C\C=C(/C)C(=O)NC(=CC1=O)C2=O [17″AAG, 17AAG] | growth of leukemia cells [1]: inhibited
6 | – | – | 0.313 | 0.108 | Cn1cc(Nc2ncc(-c3ccc(CC(=O)Nc4ccnc(C(F)(F)F)c4)cc3)cn2)cn1 [drawing 325] | –
7 | – | – | 1.54 | 0.462 | Cn1cc(Nc2ncc(-c3ccc(CC(=O)Nc4cccc(C(F)(F)F)c4)cc3)cn2)cn1 [drawing 326] | –
8 | – | – | 0.434 | 0.444 | Cn1cc(Nc2ncc(-c3ccc(CC(=O)Nc4ccc(C(C)(C)C)nc4)cc3)cn2)cn1 [drawing 327] | –
9 | – | – | – | – | CNC(=O)c1cc(Oc2ccc(NC(=O)Nc3ccc(Cl)c(C(F)(F)F)c3)cc2)ccn1 [sorafenib] | activity against identified quizartinib resistance-causing mutants [2]: ineffective
